How the values were obtained:
mice [1] = assay: Mice tail suspension test; format: in vivo
Excerpt: Experimental mechanism: mice tail suspension test was an acute behavioral despair model established by Steru et al (1985). […] This model was easy in operation, with good predictability, and was the most popular model for screening antidepressants. 1) Experimental device: an experimental frame with spacing boards which dividing the experimental frame into 2 experimental chambers (25×25×35 cm). A clamp is mounted on a through cross rod in the chamber. Male Kunming mice weighing 20-25 g. The mice were intragastrically administered with Compound 8, vehicle (distilled water, DW) or positive control drug (desipramine, DMI). After 1 h, wrap adhesive tape around the mouse's tail three quarters of the distance from the base of the tail and then suspend the animals by passing the suspension hook through the adhesive tape 5 cm above the table. The duration of immobility in the last 4 min of total 6 min test was recorded.

mice [2] = assay: Blocking effects of TSPO antagonist PK11195 on Compound 8 antidepressant activity in mice tail suspension test; format: in vivo; details: 3 mg/kg, ip
Procedure: The optimum dose (0.1 mg/kg) of YL-IPA08 in antidepressant effect of mice in tail suspension model was used to perform drug antagonism test, and the method was identical to that of Example 43, except that PK11195 group and PK11195+Compound 8 antagonism group with single intraperitoneal injection (ip) were added, wherein the antagonism group was administered by intraperitoneal injection with PK11195 simultaneously when Compound 8 was intragastrially administered.
Statistic method: the results were expressed in mean±SEM. The result was determined by two-way analysis of variance, and Bonferroni test was used for group comparison.

[3] = biological target: TSPO protein separated and purified from rat heart (Rattus norvegicus (Rat), UniProt P16257); assay: TSPO and radioligand (3H-PK11195) competitive binding test; details: for Inhibition rate (%): n = 6 times
Procedure: In the present test, TSPO protein separated and purified from rat heart was used as screening target, via competitive binding test with radioligand (^3H-PK11195), to screen TSPO ligand compounds.
Wister rats, 220-260 g, female and male, were sacrificed by decapitation and the rat heart were rapidly separated, weighed and to which homogenized in 10 times volume of Tris-HCl buffer solution (50 mM Tris-HCl, 5 mM MgCl2, 1 mM EDTA, 0.5% (W/V) BSA, 1 mM PMSF, 3 μg/ml proteinase inhibitor, 0.1% NaN3, 0.32M sucrose, pH 7.4) at 15,000 rpm for 30 s, total 5 times. The homogenate was centrifuged under 1000×g for 10 minutes and the supernatant was then centrifuged under 30000×g for 20 minutes. The precipitate was collected, and resuspended with 10 times volume of Tris-HCl buffer solution (pH 7.4) relative to the original weight, then centrifuged under 30000×g for 20 minutes. The precipitate was washed with the same buffer solution, centrifuged under 30000×g for 20 minutes and the precipitate was suspended with the above buffer solution. After sub-packaged (the whole operation procedures were performed under ice bath), the product was stored at −80° C.
3) Competitive Binding Test of Drug to the Receptor (Rat Heart TSPO) and Radioligand (^3H-PK11195):
(1) tubes were placed in reaction condition of 30° C.
(2) all tubes were added with 20 μg of receptor protein in order;
(3) the test tubes were added in order with 20 μL of drugs in certain concentrations;
(4) the non-specific binding tubes were added with 20 μL of non-tagged ligand (PK11195), the final concentration of the non-tagged ligand was 0.1 mM, pre-reacted for 30 min;
(5) all tubes were added in order with 25 μL ^3H-PK11195, the final concentration of the labeled ligand was 1.5 nM;
(6) Tris-HCl Buffer pH7.4 was used to complement the reaction volumes of all tubes to reach 200 μL;
(7) the reaction was performed under 30° C. reaction condition for 1 h;
(8) Then samples were applied to 49-type glass fibre filter, vacuum suction filtered, then washed with 2 ml ice-cold Tris-HCl buffer solution (50 mM Tris-HCl buffer solution, 1 mM EDTA, 5 mM MgCl2, 1 mM PMSF, 0.1% NaN3, 3 μg/ml proteinase inhibitor, pH 7.4). The filter was dried and placed in a scintillation vial with 1 ml of scintillation fluid. The radio-activity was measured by a scintillation counter.

mice [4] = assay: Mice open field spontaneous locomotor activity test; format: in vivo; details: intragastric
Excerpt: Experimental mechanism: the aim was to observe the effects of drugs on central nervous excitation, so as to exclude false positive reactions of anxiolytic or antidepressant effects caused by central nervous excitation.
1) Experimental device: the mice open field box was a colorless transparent organic glass box (30×36×25 cm), which bottom surface was divided into 9 lattices.
2) Experimental operation: Compound 8(8^#, YL-IPA08), Compound 10(10^#, YL-IPA10), Compound 11(11^#, YL-IPA11) and Compound 13(13^#, YL-IPA13) (separately having three dose groups of 0.03, 0.3, 3 mg/kg) and blank control (distilled water, DW) were administered intragastrically, and the test started after 55 min. During test, the mice were placed in the central area of the open field spontaneous locomotor activity observation box, started timing immediately, the spontaneous activities of mice within 5 min were recorded artificially (observation indexes: number of rearings, number of crossings).

mice [5] = assay: Mice elevated plus maze test; format: in vivo
[6] = doses 0.03, 0.3, 3 mg/kg, 55 min after dosing, 5 min observation
[7] = 9 gradient concentrations, plotting and fitting

Row | Structure (SMILES) | Inhibition rate (%) ([3]; 1 × 10^−5M) | Inhibition rate (%) ([3]; 1 × 10^−7M) | Inhibition rate (%) ([3]; 1 × 10^−9M) | melting point [°C] | further results
1 | CNCCCN1c2ccccc2CCc2ccccc21 [desipramine, reference compound] | – | – | – | – | minimum effective dose to generate antidepression activity (mice [1]; mice tail suspension test): 30 mg/kg
2 | CCC(C)N(C)C(=O)c1cc2ccccc2c(-c2ccccc2Cl)n1 (centres unmarked) [PK11195] | – | – | – | – | immobility time in mice tail suspension test, single administration versus control (mice [2]): no significant influence
3 | COCCN(Cc1ccccn1)C(=O)Cc1c(-c2ccc(Cl)c(Cl)c2)nc2cc(C)ccn12.Cl [Compound 11, N-(2-methoxyethyl)-N-(2-pyridinylmethyl)-2-(3,4-dichlorophenyl)-7-methylimidazo[1,2-a]pyridine-3-acetamide.hydrochloride] | 100 | 65 | 29 | 236 to 238 | number of rearings, number of crossings (open field spontaneous activity) versus control (mice [4]; dose 3 mg/kg): equivalent to the control; number of rearings, number of crossings (open field spontaneous activity) versus control (mice [4]; doses 0.03 and 0.3 mg/kg): lower than the control
4 | CCN(Cc1ccncc1)C(=O)Cc1c(-c2ccc(Cl)c(Cl)c2)nc2cc(C)ccn12.Cl [Compound 10, N-ethyl-N-(4-pyridinylmethyl)-2-(3,4-dichlorophenyl)-7-methylimidazo[1,2-a]pyridine-3-acetamide.hydrochloride] | 100 | 85 | 23 | 250 to 252 | number of rearings, number of crossings (open field spontaneous activity) versus control (mice [4]; [6]): equivalent to those of the control
5 | CCN(Cc1ccccn1)C(=O)Cc1c(-c2ccc(Cl)c(Cl)c2)nc2cc(C)ccn12.Cl [Compound 8, N-ethyl-N-(2-pyridinylmethyl)-2-(3,4-dichlorophenyl)-7-methylimidazo[1,2-a]pyridine-3-acetamide.hydrochloride] | 100 | 89 | 30 | 217 to 220 | number of rearings, number of crossings (open field spontaneous activity) versus control (mice [4]; [6]): equivalent to those of the control; optimum dose in antidepressant effect (mice [1]; mice tail suspension model): 0.1 mg/kg
6 | CCN(Cc1ccccc1)C(=O)Cc1c(-c2ccc(C)cc2)nc2cc(C)ccn12 [Compound 13, N-benzyl-N-ethyl-2-(4-methylphenyl)-7-methylimidazo[1,2-a]pyridine-3-acetamide] | 97 | 89 | 42 | 220 to 222 | IC50 [3, 7]: 6.99 nM; Ki [3, 7]: 2.97 nM; number of rearings, number of crossings (open field spontaneous activity) versus control (mice [4]; [6]): apparently lower than the control; all elevated plus maze indexes versus control (mice [5]; mice, dose 0.03, 0.3, 3 mg/kg): significantly lower than the control
7 | CN1C(=O)CN=C(c2ccccc2)c2cc(Cl)ccc21 [diazepam, reference compound] | – | – | – | – | minimum effective dose for generating anxiolytic-like effects (mice [5]; mice elevated plus maze, ip): 2 mg/kg
8 | CCN(Cc1cccnc1)C(=O)Cc1c(-c2ccc(Cl)cc2)nc2cc(C)ccn12.Cl [Compound 3, N-ethyl-N-(3-pyridinylmethyl)-2-(4-chlorophenyl)-7-methylimidazo[1,2-a]pyridine-3-acetamide.hydrochloride] | 100 | 25 | 0 | 236 to 238 | –
9 | CCN(Cc1cccnc1)C(=O)Cc1c(-c2ccc(Cl)c(Cl)c2)nc2cc(C)ccn12.Cl [Compound 9, N-ethyl-N-(3-pyridinylmethyl)-2-(3,4-dichlorophenyl)-7-methylimidazo[1,2-a]pyridine-3-acetamide.hydrochloride] | 86 | 8 | 0 | 245 to 248 | –
10 | CCN(Cc1ccccc1)C(=O)Cc1c(-c2ccc(OC)cc2)nc2cc(C)ccn12 [Compound 19, N-benzyl-N-ethyl-2-(4-methoxyphenyl)-7-methylimidazo[1,2-a]pyridine-3-acetamide] | 94 | 76 | 0 | 175 to 178 | –
11 | COCCN(CCN1CCOCC1)C(=O)Cc1c(-c2ccc(C)cc2)nc2ccc(C)cn12.Cl [Compound 26, N-(2-methoxyethyl)-N-(2-morpholinylethyl)-2-(4-methylphenyl)-6-methylimidazo[1,2-a]pyridine-3-acetamide.hydrochloride] | 48 | 1 | 0 | 245 to 247 | –
